For assay [1], the system named is TMEM16A or TMEM16F. Description: Expression of TMEM16A / TMEM16F after niclosamide. The assay is classed as cell-based.
Assay [2] deals with colon. Description: Niclosamide applied in vivo (ip or gavage), then colon perfusion and PAS staining. Set-up: species or system mouse. The note with it: for ATP-induced release of mucus: three days before perfusion, 100 μM ATP. Here is the method:
FIG. 18: Effect of niclosamide on intestinal mucus release. • A) Acute mucus secretion in excised wt colon activated by methacholine or ATP, respectively, and inhibition by acute perfusion with niclosamide (niclosamide; 10 μM). • B-D) Effect of intraperitoneal injection of niclosamide (20 mg/kg/day) on PAS staining (B,C) and acute mucus discharge induced by perfusion with 100 μM ATP (D). • E-G) Effect of application of niclosamide by gavage (20 mg/kg/day) on PAS staining (E,F) and acute mucus discharge induced by perfusion with 100 μM ATP (G). Mean±SEM; #significant difference when compared to -niclosamide (unpaired t-test); (n) number of perfused colons and PAS stainings analyzed, respectively. Bars indicate 50 μm.
It was examined whether niclosamide inhibits intestinal mucus secretion. To this end, niclosamide was added to the perfusate. […] Niclosamide was applied in vivo by intraperitoneal (ip) injection, or was applied orally by gavage three days before intestinal perfusion. […] TMEM16F plays a crucial role for intracellular Ca^2+ signaling. The present inventors detected reduced Ca^2+ increase upon ATP-stimulation of freshly isolated crypt cells from Vil1-Cre TMEM16F^flox/flox mice. In contrast, CCH-induced Ca^2+ rise was not affected. […] Increase in FM4-64 fluorescence in the plasma membrane is a marker for membrane exocytosis. The present inventors detected that ATP-stimulation (but not cholinergic stimulation) of HEK293 cells expressing TMEM16F induced FM4-64 fluorescence, i.e. exocytosis.

In assay [3] the target is T1, TMEM16A (Homo sapiens, UniProt Q5XXA6).
T1 sequence (Q5XXA6 1-986): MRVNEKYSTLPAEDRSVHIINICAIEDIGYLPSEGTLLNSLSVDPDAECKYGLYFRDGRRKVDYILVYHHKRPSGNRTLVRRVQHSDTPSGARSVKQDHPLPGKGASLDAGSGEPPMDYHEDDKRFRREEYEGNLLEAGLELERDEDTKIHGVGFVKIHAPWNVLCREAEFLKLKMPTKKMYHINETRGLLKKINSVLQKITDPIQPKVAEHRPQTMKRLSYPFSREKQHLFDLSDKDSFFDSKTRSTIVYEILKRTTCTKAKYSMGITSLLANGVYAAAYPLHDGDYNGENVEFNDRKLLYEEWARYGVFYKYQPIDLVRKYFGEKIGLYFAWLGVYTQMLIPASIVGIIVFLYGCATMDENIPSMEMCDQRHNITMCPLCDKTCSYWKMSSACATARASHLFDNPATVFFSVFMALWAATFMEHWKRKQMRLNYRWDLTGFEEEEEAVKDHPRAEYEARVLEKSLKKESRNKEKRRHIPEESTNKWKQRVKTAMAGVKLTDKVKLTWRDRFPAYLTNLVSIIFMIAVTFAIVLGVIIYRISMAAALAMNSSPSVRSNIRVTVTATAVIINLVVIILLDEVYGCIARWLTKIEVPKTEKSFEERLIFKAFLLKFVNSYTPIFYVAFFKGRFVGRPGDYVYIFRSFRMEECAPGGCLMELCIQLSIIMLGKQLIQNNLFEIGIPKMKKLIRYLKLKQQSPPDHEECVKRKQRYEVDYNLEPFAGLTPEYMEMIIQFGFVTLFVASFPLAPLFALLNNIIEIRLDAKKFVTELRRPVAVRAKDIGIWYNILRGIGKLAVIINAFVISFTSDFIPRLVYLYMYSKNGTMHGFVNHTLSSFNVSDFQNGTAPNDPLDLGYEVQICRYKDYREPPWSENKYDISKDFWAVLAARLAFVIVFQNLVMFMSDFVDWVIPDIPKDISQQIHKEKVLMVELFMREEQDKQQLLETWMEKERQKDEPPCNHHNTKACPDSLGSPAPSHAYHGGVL
Description: ATP-induced current in HT29 cells expressing TMEM16A, patch clamp. The assay is classed as cell-based. Set-up: expressed in transfected cells. The note with it: 1 μM compound applied simultaneously with ATP (wo μM), #p<0.01. From the text: FIG. 2: ATP-induced current in HT29 cells expressing TMEM16A in an electrophysiological patch clamp investigation.
ATP was applied at a concentration of wo μM.
Background: Patch clamp records ionic current or voltage across a cell membrane.

In assay [4] the target is T1, TMEM16A. Description: Whole cell currents in HEK293 cells expressing TMEM16A (patch clamp). Type of assay: cell-based. Set-up: expressed in transfected cells; host or cells: HEK293 cells. The note with it: overexpressing HEK293 cells; UTP 100 μM. Here is the method: FIG. 14: The TMEM16-inhibitor niflumic acid attenuates inflammatory airway disease. • A,B) OVA-sensitization induced pronounced goblet cell metaplasia as indicated by alcian blue positivity. Exposure to carbachol (CCH, 25 mg/ml, nebulizer) induced release of mucus and airway […]. Bars indicate […]. […] Mean±SEM; *significant inhibition by NFA (paired ttest). # significant difference when compared to OVA (unpaired t-test). (n) number of airways analysed or number of cells examined.
FIG. 15: Inhibition of TMEM16A and TMEM16F by niclosamide. • A) TMEM16A whole cell currents in overexpressing HEK293 cells. […]
OVA-induced allergic airway inflammation in mice caused pronounced airway goblet cell metaplasia. […] The two main TMEM16 paralogs expressed in airway epithelial and smooth muscle cells, TMEM16A and TMEM16F, were expressed in HEK293 cells and the whole cell currents upon activation by the Ca^2+ ionophore ionomycin (Iono) were measured. […]
Similar to TMEM16A, also overexpressed TMEM16F was inhibited by niclosamide (FIG. 15D). […] TMEM16A was activated by ionomycin and TMEM16A currents were measured as iodide quenching.

Consider 1 compound from US20210283110A1, “COMPOUND FOR USE IN THE TREATMENT OF A DISEASE CHARACTERIZED BY DYSREGULATED MUCUS PRODUCTION AND/OR SECRETION” (UNIVERSITÄT REGENSBURG, priority 2018, published 2021).

“Also recorded” adds a separate entry of the source.

For `O=C(Nc1ccc([N+](=O)[O-])cc1Cl)c1cc(Cl)ccc1O` [niclosamide, 5-chloro-N-(2-chloro-4-nitrophenyl)-2-hydroxybenzamide], the “expression of either TMEM16A or TMEM16F” value in assay [1] is “did not change”. Moreover, the “ATP-induced release of mucus” value in assay [2] (intraperitoneal injection 20 mg/kg/day) and in assay [2] (oral by gavage 20 mg/kg/day) was “completely inhibited” throughout. For the same compound, the “mucus accumulation in goblet cells (PAS staining)” value in assay [2] (ip or oral niclosamide) was “did not accumulate”. Further, the “ATP-induced ion current arising from TMEM16A activation” value in assay [3] is listed as “significantly reduced”. The “TMEM16A outward currents activated by purinergic stimulation” value in assay [4] is on record as “inhibitory effect; also recorded: Concentration-dependent inhibition”.
